In publication PMC6630837 (Pharmaceuticals, 2019):
“Also recorded” adds a separate entry of the source. Read-outs that look alike come from different tables or passages of the source.

What was measured:
[1] = tested on: SH-SY5Y human neuroblastoma cells; experiment: Neuroprotection against H2O2-induced toxicity, MTT cell viability assay; assay type: cell-based; conditions: 50 μM compound, 100 μM H2O2, 24 h, 37 °C
Text: Neuroprotective activity assays against H2O2-induced toxicity. On the basis of previously described protocols, the flavones and analogues herein synthesized were screened for their neuroprotective effects against H2O2-induced oxidative stress and neuronal damage in SH-SY5Y human neuroblastoma cells by means of a thiazolyl blue tetrazolium bromide (MTT) reduction-based cell viability assay.
Neuroprotective assays in human neuroblastoma (SH-SY5Y) cells. […] Differences were considered significant when P < 0.05.

[2] = LogD7.4 determination (octan-1-ol/phosphate buffer, LC-MS); assay type: physicochemical
Procedure: LogD7.4 determination. The in-silico prediction tool ALOGPS [4] was used to estimate the octanol-water partition coefficients (log P) of the compounds. […] For each category, two different ratios (volume of octan-1-ol to volume of buffer) were defined as experimental parameters (Table 2).
Equal amounts of phosphate buffer (0.1 M, pH 7.4) and octan-1-ol were mixed and shaken vigorously for 5 min to saturate the phases. The mixture was left until separation of the two phases, and the buffer was retrieved. Stock solutions of the test compounds were diluted with buffer to a concentration of 1 μM. For each compound, three determinations per octan-1-ol:buffer ratio were performed in different wells of a 96-well plate. The respective volumes of buffer-containing analyte (1 μM) were pipetted to the wells and covered by saturated octan-1-ol according to the chosen volume ratio. […] The aqueous phase was transferred to a 96-well plate for analysis by liquid chromatography-mass spectrometry (LCMS, see below).
Results are presented as the mean ± SD of three independent experiments.
LC-MS measurements. […] The system was controlled with the Agilent MassHunter Workstation Data Acquisition software (version B.01.04). The column used was an AtlantisR T3 C18 column (2.1 × 50 mm) with a 3 μm-particle size (Waters Corp., Milford, MA, USA). The mobile phase consisted of eluent A: 10 mM ammonium acetate, pH 5.0 in 95:5, H2O:MeCN; and eluent B: MeCN containing 0.1% formic acid. The flow rate was maintained at 0.6 mL/min. […] MS parameters such as fragmentor voltage, collision energy, and polarity were optimized individually for each drug, and the molecular ion was followed for each compound in the multiple reaction monitoring mode. The concentrations of the analytes were quantified by the Agilent Mass Hunter Quantitative Analysis software (version B.01.04).

[3] = tested on: SH-SY5Y neuroblastoma cells; experiment: Cytotoxic activity of compounds alone, MTT cell viability assay; conditions: 24 h
Procedure: Neuroprotective assays in human neuroblastoma (SH-SY5Y) cells. SH-SY5Y cells were grown in Dulbecco’s Modified Eagle Medium (DMEM, Gibco, Life Technologies) supplemented with 10% fetal bovine serum (FBS, Biochrom GmbH) and 1% Penicillin-Streptomycin (Gibco, Life Technologies) in a humidified incubator at 37 °C, 5% CO2. For the neuroprotective activity assay, undifferentiated SGSY-5Y cells were plated onto 96-well flat-bottomed microtiter plates at a density of 1 × 10^4 cells/well in DMEM supplemented with 2% FBS and preincubated for 24 h at 37 °C, 5% CO2. Compounds (stored as 10 mM solutions in DMSO at −20 °C) were then added to achieve a final concentration of 50 μM and, after 30 min, cells were incubated in the presence or absence of 20 μM Aβ protein fragment 1-42 (Sigma-Aldrich, dissolved in DMSO and stored in 2 mM aliquots at −20 °C) or 100 μM of H2O2 (Sigma-Aldrich, dissolved to 10 mM in 0.9% NaCl aqueous solution immediately prior to the assay) overnight at 37 °C, 5% CO2. […] The following morning, 20 μL of a 5 mg/mL solution of 3-(4,5-dimethylthiazol-2-yl)-2,5-diphenyltetrazolium bromide (MTT, Sigma-Aldrich) in PBS (Gibco, Life Technologies) was added to each well and the plates were further incubated for 4 h at 37 °C, followed by the addition of DMSO (200 μL) to each well in order to dissolve the resulting formazan crystals. After 2 h incubating at 37 °C, the optical density (OD) at 540 nm (with a 620 nm reference filter) was measured in an Amersham Biosciences Biotrak II Plate Reader. The percentage of MTT reduction was determined according to Equation (1). […] Differences between experimental conditions were compared for statistical significance by one-way ANOVA followed by a Tukey’s post-test, an analysis carried out using GraphPad Prism Software (LA Jolla, CA, USA). Differences were considered significant when P < 0.05. In order to exclude direct MTT reduction, compounds were also tested in (a) the absence of cells and (b) in the absence of both cells and culture medium, using the same experimental conditions described above. (2) MTT Reduction (% of Control)=[ODsample−ODmedium/ODcell control−ODmedium] × 100 […]
Tabl e S2. Cytotoxic activity of each compound assessed in SH-SY5Y neuroblastoma cells via an MTT cell viability assay.a Comp ound Nr. MTT reduction (% control) p-va l u e vs . untreated cell control (unpai red t-t es t) […]
a Cells were incubated for 24 h at 37 °C, in the presence (50 μM) or absence of each compound.

[4] = target: T1, butyrylcholinesterase (BuChE) (Equus caballus, UniProt P81908); experiment: biochemical; conditions: for Butyrylcholinesterase inhibition, ranking in words: 100 µM compound; for inhibition at 100 µM: read-out: BuChE inhibitory efficacy (percentage of inhibition)
T1 construct: (BuChE, equine serum); from tissue; host or cells: equine serum
T1 sequence (P81908 whole entry): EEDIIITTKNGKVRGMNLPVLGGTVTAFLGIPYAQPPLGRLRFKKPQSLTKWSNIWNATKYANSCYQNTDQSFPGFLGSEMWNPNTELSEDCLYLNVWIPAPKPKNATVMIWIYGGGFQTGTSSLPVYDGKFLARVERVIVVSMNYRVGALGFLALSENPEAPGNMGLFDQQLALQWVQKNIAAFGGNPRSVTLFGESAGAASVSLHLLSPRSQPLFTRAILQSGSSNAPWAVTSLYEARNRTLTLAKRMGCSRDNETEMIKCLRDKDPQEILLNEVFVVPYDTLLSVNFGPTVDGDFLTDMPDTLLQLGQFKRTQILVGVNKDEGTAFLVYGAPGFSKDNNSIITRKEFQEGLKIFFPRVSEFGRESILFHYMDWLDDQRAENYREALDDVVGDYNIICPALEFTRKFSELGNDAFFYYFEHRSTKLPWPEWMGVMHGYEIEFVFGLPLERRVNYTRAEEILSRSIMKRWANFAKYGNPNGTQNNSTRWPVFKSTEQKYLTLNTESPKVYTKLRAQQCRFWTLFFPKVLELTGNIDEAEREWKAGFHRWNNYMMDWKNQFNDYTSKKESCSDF
Procedure: Experimental procedures for cholinesterase inhibition a s sa y s. For cholinesterase inhibition tests (acetylcholinesterase (AChE, electrophorus
el ec t r ic u s) a n d b ut yr ylcholinesterase (BuChE, equine serum), the Ellman’s cholorimetric assay1 was followed, with minor modifications. DMSO
was kept within 1.25% cuvette concentration. The chromogenic agent DTNB [5,5’-dithiobis(2-nitrobenzoic acid)] was fixed at 0.975 mM
con centration; 0. 1 M phosphate buffer (pH 8. 0) was employed, T = 25 °C, and the reaction was monitored for 125 s. […]
of inhibition, the substrate concentration (acetylthiocholine iodide for AChE; S- butyr ylthiocholine iodide for BuChE) was fixed at 29 µM for
AChE and at 18.2 µM concentration for BuChE.
Lineweaver-Burk plot (or double reciprocal plot, 1/V vs . 1/ [S ]) wa s u se d for estimating both, the mode of inhibition and the inhibition constants […]
Competitive inhibition (inhibitor only bonds the free enzyme):
KKiiii = [II ]KKMM iiaaaa
M i xe d inhibition (inhibitor binds both, the free and the complexed enzyme) :
Uncompetitive (the inhibitors only binds the complexed enzyme):
N on -competitive (inhibitor binds both the free enzyme and the complexed enzyme with equal affinity) :
Table S3. […]
of the synthesized flavone analogues at 100 µ M.
C omp ou n d N o. AChE B uChE

[5] = target: acetylcholinesterase (AChE) (Electrophorus electricus, UniProt O42275); experiment: Acetylcholinesterase inhibition, Ellman's colorimetric assay; assay type: biochemical; conditions: 100 µM compound; for inhibition at 100 µM: read-out: AChE inhibitory efficacy (percentage of inhibition)
acetylcholinesterase (AChE), sequence (O42275 24-633): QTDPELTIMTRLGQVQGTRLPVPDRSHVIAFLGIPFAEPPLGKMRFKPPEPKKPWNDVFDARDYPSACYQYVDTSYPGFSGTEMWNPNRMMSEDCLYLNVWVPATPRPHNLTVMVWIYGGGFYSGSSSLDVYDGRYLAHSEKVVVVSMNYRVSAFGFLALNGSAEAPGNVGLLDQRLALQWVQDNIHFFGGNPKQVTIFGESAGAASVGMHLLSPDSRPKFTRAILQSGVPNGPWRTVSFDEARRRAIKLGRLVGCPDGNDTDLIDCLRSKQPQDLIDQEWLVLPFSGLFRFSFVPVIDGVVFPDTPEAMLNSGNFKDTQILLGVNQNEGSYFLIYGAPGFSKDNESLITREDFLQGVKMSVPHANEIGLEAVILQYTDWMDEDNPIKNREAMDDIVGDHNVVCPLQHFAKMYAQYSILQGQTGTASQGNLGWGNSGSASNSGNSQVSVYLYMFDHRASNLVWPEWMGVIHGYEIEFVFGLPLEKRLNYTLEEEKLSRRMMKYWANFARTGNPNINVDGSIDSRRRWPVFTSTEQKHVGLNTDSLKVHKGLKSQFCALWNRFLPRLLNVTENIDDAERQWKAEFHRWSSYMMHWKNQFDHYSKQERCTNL
Procedure: For cholinesterase inhibition tests (acetylcholinesterase (AChE, electrophorus
was kept within 1.25% cuvette concentration.
AChE and at 18.2 µM concentration for BuChE. […]

[6] = octan-1-ol/phosphate buffer, pH 7.4, octan-1-ol/phosphate buffer pH 7.4, 25 °C, read-out: Log D7.4 (partition coefficient at pH 7.4)
[7] = 50 μM compound alone, 37 °C, 0.5% DMSO, SH-SY5Y
[8] = octan-1-ol/phosphate buffer pH 7.4, 25 °C

Compound	Neuroprotective effect against H2O2-induced toxicity (MTT cell viability) [1]	logD [2, 6]	MTT reduction (% control) [3, 7]	inhibition at 100 µM [4] [%]	further results
O=c1cc(C2CCC2)oc2cc(O)cc(O)c12 [Compound 5, 2-Cyclobutyl-5,7-dihydroxy-4H-chromen-4-one]	the increase was not significant	> 2.5	184.6 ± 30.2%		
O=c1cc(-c2ccccc2)oc2cc(O)cc(O)c12 [Compound 1, chrysin, reference compound]	absence of significant effects		96.2 ± 26.9%	64	Ki [4]: 32 ± 4 µM; Butyrylcholinesterase inhibition, ranking in words [4]: the most active butyrylcholinesterase inhibitor; Mode of inhibition ([4]; BuChE, Lineweaver-Burk plot): Non-* co mp etit iv e in hi bit io n; logD ([2]; octan-1-ol/phosphate buffer pH 7.4, 25 °C, read-out: Log D7.4 (partition coefficient at pH 7.4)): 3.6 ± 0.4; inhibition at 100 µM [5]: 18%
O=c1cc(-c2ccc(N3CCCC3)cc2)oc2cc(O)cc(O)c12 [Compound 9, 5,7-Dihydroxy-4′-(pyrrolidin-1-yl)flavone]	able to produce statistically significant differences when compared to H2O2 controls		163.6% ± 72.6	32	inhibition at 100 µM [5]: 27%
O=c1cc(-c2ccco2)oc2cc(O)cc(O)c12 [Compound 11, 2-(Furan-2-yl)-5,7-dihydroxy-4H-chromen-4-one]	contrarily	> 2.5	129.7 ± 9.06%		
2-(Furan-2-yl)-8-(β-D-glucopyranosyl)-5,7-dihydroxy-4H-chromen-4-one [Compound 21]	able to rescue cells from oxidative damage caused by H2O2; also recorded: able to produce a significant improvement in cell viability		131.5 ± 11.0%		Log D7.4 (partition coefficient at pH 7.4) [2, 8]: −0.2 ± 0.1
CCC(C)c1cc(=O)c2c(O)cc(O)cc2o1 (stereo not drawn) [Compound 6, 5,7-Dihydroxy-2-(1-methylpropyl)-4H-chromen-4-one]	the increase was not significant	> 2.5	109.9 ± 18.7%	46	Butyrylcholinesterase inhibition, ranking in words [4]: the most promising one; Mode of inhibition ([4]; BuChE, Lineweaver-Burk plot): Mixed inhibition; Ki ([4]; BuChE, Lineweaver-Burk plot, read-out: Kia (inhibition constant)): 44 ± 17 µM; Ki ([4]; BuChE, Lineweaver-Burk plot, read-out: Kib (inhibition constant)): 36 ± 8 µM; AChE inhibitory efficacy (percentage of inhibition) [5]: n.i .
O=c1cc(-c2ccc(O)cc2)oc2c([C@@H]3O[C@H](CO)[C@@H](O)[C@H](O)[C@H]3O)c(O)cc(O)c12 [Compound 17, 8-(β-D-Glucopyranosyl)-5,7,4′-trihydroxyflavone]	able to rescue cells from oxidative damage caused by H2O2; also recorded: able to fully recover cell viability				logD ([2]; pH 7.4, Log D7.4 (partition coefficient at pH 7.4)): 0.1 ± 0.1; MTT reduction (% control) ([3]; human, 50 μM): 85.0 ± 38.5%
O=c1cc(C2CC2)oc2cc(O)cc(O)c12 [Compound 4, 2-Cyclopropyl-5,7-dihydroxy-4H-chromen-4-one]	the increase was not significant	2.9 ± 0.1	140.7 ± 12.0%	30	inhibition at 100 µM [5]: 24%
O=c1cc(-c2ccncc2)oc2cc(O)cc(O)c12 [Compound 12, 5,7-Dihydroxy-2-(pyridin-4-yl)-4H-chromen-4-one]	contrarily		233.7 ± 15.7%		
8-(β-D-Glucopyranosyl)-5,7-dihydroxy-4′-(pyrrolidin-1-yl)flavone [Compound 20]			219.9 ± 16.9%		Log D7.4 (partition coefficient at pH 7.4) [2, 8]: 1.8 ± 0.2
O=c1ccoc2cc(O)cc(O)c12 [Compound 13, 5,7-dihydroxychromen-4-one, reference compound]	no significant differences	2.4 ± 0.1	71.2 ± 48.1%		
CN(C)c1ccc(-c2cc(=O)c3c(O)cc(O)cc3o2)cc1 [Compound 10, 4′-Dimethylamino-5,7-dihydroxyflavone]	not significantly active	3.4 ± 0.2	191.5 ± 22.9%		
